Assay: physchem
Method: (§1) In this study, pure salicylic acid (SA) partitioning between cyclohexane and water versus salicylic acid partitioning between cyclohexane and water in SA Formulas A-D was investigated at pH 1 and at pH 7 simulating gastric fluids and duodenum fluids. The study was conducted by adding either SA, SA Formulas A-D into a cyclohexane/water partitioning system and measuring the differential partitioning of SA between the two phase as the value Log P.
as §1, with “naproxen (NAP)” for “salicylic acid (SA)”, “NAP” for “salicylic acid”, “NAP” for “SA”, “NAP, NAP” for “SA, SA”
as §1, with “indomethacin (INDO)” for “salicylic acid (SA)”, “INDO” for “salicylic acid”, “INDO” for “SA”, “INDO, INDO” for “SA, SA”
as §1, with “pure mefenamic” for “pure salicylic”, “acid (MFA)” for “acid (SA)”, “versus MFA” for “versus salicylic acid”, “in MFA” for “in SA”, “either MFA, MFA” for “either SA, SA”, “of MFA” for “of SA”

logD hydrocarbon water (pH 1) | logD hydrocarbon water (pH 7) | SMILES
1.05 | -1.81 | COc1ccc2c(c1)c(CC(=O)O)c(C)n2C(=O)c1ccc(Cl)cc1 [INDO, indomethacin]
0 | 0.47 | Cc1cccc(Nc2ccccc2C(=O)O)c1C [MFA, mefenamic acid]
-1.11 | 0 | O=C(O)c1ccccc1O [SA, salicylic acid]

Source: patent publication US10786444B2, “PH dependent carriers for targeted release of pharmaceuticals along the gastrointestinal tract, compositions therefrom, and making and using same” (PLx Opco Inc., priority 2011, dated 2020)
